In US20210322582A1, “RADIOACTIVE IMIDAZOTHIADIAZOLE DERIVATIVE COMPOUND” (Nihon Medi-Physics Co., Ltd., priority 2018, published 2021):

Assays:
[1] = In vitro stability in mouse plasma; format: in vitro ADME; settings: 37° C.; for Stability in mouse plasma: 24-hour incubation; for Stability (intact (%)): mouse plasma
Procedure: Blood was collected from a ddy mouse (purchased from Shimizu Laboratory Supplies Co., Ltd.), and centrifuged (1,200 g, 10 minutes) in a venous blood collection tube (manufactured by Becton, Dickinson and Company). The blood plasma (200 μL) was separated, a saline solution (185 kBq) of [^111In]ITDA1, [^111In]ITDA2, or [^111In]ITDA3 was added into the blood plasma, and the obtained mixture was incubated at 37° C. for 1, 4, 8, and for 24 hours (n=3). Further, into the incubated mixture, acetonitrile (200 μL) was added, and then the mixture was centrifuged (10,000 g, 5 minutes), the supernatant was filtered with COSMONICE Filter (S) (0.45 μm, 4 mm) (manufactured by NACALAI TESQUE, INC.), and the filtrate was analyzed by RP-HPLC under the following conditions. In this regard, the intact % in FIGS. 4A and 4B was determined from the area percentage of the RP-HPLC elution pattern.
Column: Cosmosil Cis column (5C18-PAQ, 4.6×250 mm)
Mobile phase: water/acetonitrile/trifluoroacetic acid (90: 10: 0.1 (0 min)→60: 40: 0.1 (30 min)), and flow rate for analysis: 1.0 mL/min

[2] = system: CA-IX-negative MDA-MB-231 cells; test: In vitro CA-IX affinity and specificity, cell binding, cells lysed at room temperature (Example 11); format: cell-based; settings: AZ 50 μM, 21% or 1% oxygen, lysis at room temperature
Procedure: (§1) HT-29 cells (purchased from Dainippon Sumitomo Pharma Co., Ltd.) and MDA-MB-231 cells (purchased from Dainippon Sumitomo Pharma Co., Ltd.) were incubated in a 12-well plate (2.0×10^5 cells/well) at 37° C. for 24 hours under an atmosphere of 5% carbon dioxide and 21% oxygen, and then further incubated at 37° C. for 24 hours under an atmosphere of 5% carbon dioxide and 21% or 1% oxygen. After the culture medium was removed, Dulbecco's modified Eagle's medium (DMEM, 1 mL) containing[^111In]ITDA1 (14 kBq), [^111In]ITDA2 (26 kBq), or [^111In]ITDA3 (37 kBq) was added to each well, and then the incubation was performed at 37° C. for 2 hours under an atmosphere of 5% carbon dioxide and 21% or 1% oxygen. In addition, a separate plate was incubated in a similar manner as in the above except that acetazolamide (AZ, 50 μM) was added to [^111In]ITDA1 (14 kBq), [^111In]ITDA2 (26 kBq), or [^111In]ITDA3 (37 kBq) as a competitive compound for CA-IX. After that, each well was washed with 1 mL of phosphate-buffered saline (PBS, pH 7.4) (manufactured by NACALAI TESQUE, INC.), and the cells were lysed at room temperature in an aqueous solution of 1 N sodium hydroxide ([^111In]ITDA1: 0.25 mL×2, [^111In]ITDA2: 0.5 mL×2, and [^111In]ITDA3: 0.2 mL×2). The amount of radioactivity bound to the cells was measured by a gamma counter (model name: Wallac 1470 Wizard, PerkinElmer, Massachusetts, made in U.S.A., the same applies to the following examples).
(§2) FIG. 3A is a graph showing whether or not the affinity of compound [^111In]ITDA1 for CA-IX in each of the HT-29 cells and the MDA-MB-231 cells is inhibited by the coexistence of acetazolamide (AZ). Further, FIG. 3B is a graph showing whether or not the affinity of compound [^111In]ITDA2 for CA-IX in each of the HT-29 cells and the MDA-MB-231 cells is inhibited by the coexistence of acetazolamide (AZ). Moreover, FIG. 3C is a graph showing whether or not the affinity of compound [^111In]ITDA3 for CA-IX in each of the HT-29 cells and the MDA-MB-231 cells is inhibited by the coexistence of acetazolamide (AZ).

[3] = system: CA-IX-positive HT-29 cells; test: as above; format: cell-based; settings: for Inhibition of cell binding by acetazolamide: HT-29 cells, AZ 50 μM, 21% or 1% oxygen, lysis at room temperature; for Selectivity of binding to CA-IX: HT-29 vs MDA-MB-231 cells, room temperature lysis
Procedure: as §1, §2

[4] = 1-octanol/PBS (pH 7.4) partition coefficient; format: physicochemical
Procedure: The 1-octanol/PBS (pH 7.4) partition coefficients of [^111In]ITDA1 and [^111In]ITDA2, which were obtained in Example 6, and [^111In]ITDA3 obtained in Example 10 were measured.
The above two phases were saturated with each other in advance, and 1-octanol (3 mL) and PBS (3 mL) were pipetted into a 15-mL test tube containing [^111In]ITDA1 (37 kBq), [^111In]ITDA2 (37 kBq), or [^111In]ITDA3 (370 kBq). The test tube was vortexed for 2 minutes and centrifuged (4,000 g, 5 minutes). 0.5 mL was taken from each of the 1-octanol phase and the PBS phase, and transferred to two test tubes, respectively for measurement. The residual PBS phase (1 mL), and newly prepared 1-octanol (3 mL) and PBS (2 mL) were pipetted into a new test tube. The amount of radioactivity in each test tube was measured by using a gamma counter. The partition coefficient was calculated by using the equation log Pow=log10[count1-octanol/countPBS]. As a result, the log Pow of [^111In]ITDA1 was −3.72±0.05, the log Pow of [^111In]ITDA2 was −2.32±0.01, and the log Pow of [^111In]ITDA3 was −3.47±0.09.

[5] = system: CA-IX-negative MDA-MB-231 cells; test: In vitro CA-IX affinity and specificity, cell binding, cells lysed at 37° C. (Example 18); format: cell-based; settings: for Inhibition of cell binding by acetazolamide: MDA-MB-231 cells, normoxic and hypoxic, lysis at 37° C.
Procedure: as §1
(§3) Example 18 was performed similarly as in Example 11 except that the cells were lysed in a constant temperature water bath at 37° C. The accumulation of radioactivity in each cell was expressed by % initial dose/mg protein obtained by dividing the ratio of the amount of radioactivity bound to each cell to the added amount of radioactivity by the amount of cell protein.

[6] = system: CA-IX-positive HT-29 cells; test: as above; format: cell-based; settings: for Inhibition of cell binding by acetazolamide: HT-29 cells, normoxic and hypoxic; for Inhibition of cell binding by acetazolamide / Selectivity of binding to CA-IX: lysis at 37° C.; for Selectivity of binding to CA-IX: HT-29 vs MDA-MB-231 cells
Procedure: as §1, §3

[7] = 1% Oxygen AZ(+), acetazolamide 50 μM
[8] = 21% Oxygen AZ(+), acetazolamide 50 μM

| SMILES | Stability in mouse plasma [1] | Inhibition of cell binding by acetazolamide [2] | Inhibition of cell binding by acetazolamide [3] | Selectivity of binding to CA-IX [3] | log Pow [4] | Amount of binding to MDA-MB-231 cells [5, 7] [% initial dose/mg protein] | Amount of binding to MDA-MB-231 cells ([5]; 1% Oxygen AZ(−)) [% initial dose/mg protein] | Amount of binding to MDA-MB-231 cells [5, 8] [% initial dose/mg protein] | Amount of binding to MDA-MB-231 cells ([5]; 21% Oxygen AZ(−)) [% initial dose/mg protein] | Inhibition of cell binding by acetazolamide [5] | Amount of binding to HT-29 cells [6, 7] [% initial dose/mg protein] | Amount of binding to HT-29 cells ([6]; 1% Oxygen AZ(−)) [% initial dose/mg protein] | Amount of binding to HT-29 cells [6, 8] [% initial dose/mg protein] | Amount of binding to HT-29 cells ([6]; 21% Oxygen AZ(−)) [% initial dose/mg protein] | Inhibition of cell binding by acetazolamide [6] | Selectivity of binding to CA-IX [6] | also measured |
| --- | --- | --- | --- | --- | --- | --- | --- | --- | --- | --- | --- | --- | --- | --- | --- | --- | --- |
| NS(=O)(=O)c1nn2cc(-c3ccc(NC(=O)CN4CCN(CC(=O)O)CCN(CC(=O)Nc5ccc(-c6cn7nc(S(N)(=O)=O)sc7n6)cc5)CCN(CC(=O)O)CC4)cc3)nc2s1.[111In+3] [[^111In]ITDA2, [^111In]indium(III)2,2′-(4,10-bis(2-oxo-2-((4-(2-sulfamoylimidazo[2,1-b][1,3,4]thiadiazol-6-yl)phenyl)amino)ethyl)-1,4,7,10-tetraazacyclododecan-1,7-diyl) diacetic acid] | sufficient stability | the competitive inhibition was not observed | the inhibition was observed in the presence of acetazolamide | selectively bind to the CA-IX | −2.32±0.01 | 0.7 ± 0.1 | 2.9 ± 0.4 | 1.4 ± 0.2 | 2.5 ± 0.5 | the competitive inhibition was not observed | 12.1 ± 3.7 | 109.2 ± 6.7 | 7.6 ± 2.3 | 48.3 ± 5.9 | the inhibition was observed in the presence of acetazolamide | selectively bind to the CA-IX | – |
| NS(=O)(=O)c1nn2cc(-c3ccc(NC(=O)CN4CCN(CC(=O)O)CCN(CC(=O)O)CCN(CC(=O)O)CC4)cc3)nc2s1.[111In+3] [[^111In]ITDA1, [^111In]indium(III)2,2′,2″-(10-(2-oxo-2-((4-(2-sulfamoylimidazo[2,1-b][1,3,4]thiadiazol-6-yl)phenyl)amino)ethyl)-1,4,7,10-tetraazacyclododecan-1,4,7-triyl) triacetic acid] | sufficient stability | the competitive inhibition was not observed | the inhibition was observed in the presence of acetazolamide | selectively bind to the CA-IX | −3.72±0.05 | 0.1 ± 0.0 | 6.5 ± 0.8 | 0.1 ± 0.0 | 1.4 ± 0.3 | the competitive inhibition was not observed | 2.2 ± 0.5 | 198.9 ± 5.7 | 0.9 ± 0.2 | 118.1 ± 21.4 | the inhibition was observed in the presence of acetazolamide | selectively bind to the CA-IX | – |
| NS(=O)(=O)c1nn2cc(-c3ccc(NC(=O)CCC(C(=O)O)N4CCN(CC(=O)[O-])CCN(CC(=O)[O-])CCN(CC(=O)[O-])CC4)cc3)nc2s1.[111In+3] (stereo not shown) [[^111In]ITDA3] | – | the competitive inhibition was not observed | the inhibition was observed in the presence of acetazolamide | selectively bind to the CA-IX | −3.47±0.09 | 0.1 ± 0.0 | 2.0 ± 1.1 | 0.2 ± 0.0 | 0.5 ± 0.1 | the competitive inhibition was not observed | 1.0 ± 0.1 | 93.4 ± 16.0 | 0.3 ± 0.0 | 47.2 ± 6.8 | the inhibition was observed in the presence of acetazolamide | selectively bind to the CA-IX | Stability (intact %) in mouse plasma ([1]; incubation for 1 to 24 hours): ≥ 95%; Stability (intact (%)) ([1]; 1 h): 97.4 ± 0.8%; Stability (intact (%)) ([1]; 4 h): 99.0 ± 0.6%; Stability (intact (%)) ([1]; 8 h): 98.0 ± 0.1%; Stability (intact (%)) ([1]; 24 h): 98.8 ± 0.4% |
